This note sets out measurements from US7354579B2, “Method of treating cancer with a VEGF antagonist and an anti-proliferative agent” (Regeneron Pharmaceuticals, Inc., priority 2003, dated 2008).

The subject of the test is OVCAR3 cells. The test is described as follows: OVCAR3 i.p. tumor model in athymic nude mice: tumor burden and ascites after 4 weeks of treatment. Type of test: in vivo. The settings on record: for % Reduction Ascites / % Reduction Tumor Burden: compared to controls; for % Reduction Ascites: ascites volume at end of 4 weeks of treatment; for % Reduction Tumor Burden: treatment for 4 weeks starting 2 weeks after i.p. inoculation, VEGF-Trap s.c. twice weekly, paclitaxel i.p. 3 times weekly; for Ascites formation (in words): end of 4 weeks of treatment; for Mice with tumors in the hilus of the liver / Mice with tumors on the diaphragm: end of experiment. The procedure: Experimental Design. Two experiments, each with 4 groups of female athymic nude mice (5-7 wks, 20 mice/experiment, total n=40) were inoculated i.p. with OVCAR3 cells. Two weeks after inoculation, 1 group was treated with VEGF-Trap s.c. twice weekly+paclitaxel i.p. 3 times weekly for 4 weeks. The second group was treated with VEGF-Trap alone. The third group was treated with paclitaxel alone. The remaining group was treated with vehicle. At the end of the experiments, the mice were euthanized, the volume of ascites was measured and all visible tumor was excised and weighed.

Regarding “VEGF Trap: VEGF-receptor based trap antagonist VEGFR1R2-FcΔC1(a) (SEQ ID NOs: 1-2), capable of high affinity binding of VEGF”, the “% Reduction Ascites” value is 96.5%, the “% Reduction Tumor Burden” value turned out to be 56.7%, the “Mice with tumors in the hilus of the liver” value worked out at 60% and the “Mice with tumors on the diaphragm” value is listed as “Ninety”. For the setting “listed as VEGF-Trap”, the “% Reduction Tumor Burden” value came to 55.7% and the “Ascites formation (in words)” value is listed as “Virtually no ascites developed”. The “Ascites formation (in words)” value (listed as VEGF trap) is “no demonstrable ascites”.

In the case of `CC(=O)O[C@H]1C(=O)[C@@]2(C)[C@H]([C@H](OC(=O)c3ccccc3)[C@]3(O)C[C@H](OC(=O)[C@H](O)[C@@H](NC(=O)c4ccccc4)c4ccccc4)C(C)=C1C3(C)C)[C@]1(OC(C)=O)CO[C@@H]1C[C@@H]2O` [Taxol ™, paclitaxel, reference compound], the “% Reduction Ascites” value stood at 85.4%, the “% Reduction Tumor Burden” value is listed as 55.9%, the “Mice with tumors in the hilus of the liver” value amounted to 60% and the “Mice with tumors on the diaphragm” value is 80%. In addition, under “listed as Paclitaxel”, the “% Reduction Ascites” value came to 85.5%. Also, the “% Reduction Tumor Burden” value (listed as paclitaxel) amounted to 54.8%.
